Experimental data published in ChEMBL document CHEMBL3832077, “DailyMed|setid=dc3d3905-2f08-4b71-b949-53f49fb3ea10 | METRONIDAZOLE- metronidazole tablet|Lake Erie Medical DBA Quality Care Products LLC”.

Key:
Homo sapiens = experiment: (§1) Evaluation of pharmacokinetic parameters for Metronidazole following oral administration of Metronidazole tablets; type: ADME, organism-based; parameters: dose 250 mg, dose 2000 mg, dose 500 mg, route oral; conditions: in vivo, po, dosed compound id 31, dosed compound name METRONIDAZOLE, tissue Plasma
[1] = as §1; type: ADME, organism-based; parameters: dose 250 mg, dose 2000 mg, dose 500 mg, route oral; conditions: human, in vivo, dosed compound id 31, dosed compound name METRONIDAZOLE, tissue Plasma

CL_renal (Homo sapiens): 10 mL/min/1.73 m2 | Tmax [1]: 1 to 2 h
Compound: Cc1ncc([N+](=O)[O-])n1CCO [METRONIDAZOLE]
